The target in series [1] is Zika virus NS2B-NS3 protease (ZiPro) (Zika virus, UniProt A0A024B7W1). The experiment in a line: Zika virus NS2B-NS3 protease (ZiPro) inhibition assay. Format: biochemical. The conditions noted are these: for IC50: purified compounds, dose-response curve assuming Hill slope of 1, 3-parameter fit. The method, then: Expression and purification of Zika virus protease NS2B-NS3 (ZiPro)
The unlinked Zika virus protease NS2B-NS3 construct referred to as bZiPro was obtained from Addgene (plasmid #86846) and expressed and purified exactly as described previously.1 Preparation of samples for ZiPro assay
Linear peptide samples 1a – 10a were prepared by adding 2 µl of 1a – 10a (10 mM in water) to 198 µl of buffer (10 mM Tris pH 7.5, 1 mM TCEP). The presence of TCEP is important to reduce cyclic disulfides. Stapled peptides 1b – 10b were prepared in situ by adding 2.5 µl of DCP (10 mM in DMSO) and 2 µl of 1a – 10a (10 mM in water) to 195.5 µl of buffer (10 mM Tris pH 7.5, 1 mM TCEP). Samples were incubated overnight, and the presence of stapled peptides 1b – 10b was confirmed by LC-MS (method B).
ZiP ro inhibition assay (Table 2)
The assay was conducted in 96-well plates (black U-bottom, Greiner Bio-One) in a total volume of 100 µl using 10 mM Tris pH 8.5, 1 mM CHAPS, 20% glycerol . All measurements were performed in triplicate. Purified peptides 1a – 10a and crude mixtures containing peptides 1b – 10b (prepared as described above) were incubated with ZiPro (0.3 nM) at final concentrations of 1 and 10 µM. The enzymatic reaction was initiated by addition of the substrate Bz-Nle-Ly s-Lys-Arg-A MC (Biosynt a n) at a final concentration of 5 µM.
Fluorescence was monitored by a fluorophotometer (Spectramax M2e plate reader, Molecular Devices) for 5 min at 460 nm using 360 nm excitation. Initial velocities were derived from the linear range, and 100% enzyme activity was defined as the initial velocity of blank wells containing no peptide. Percent inhibition was calculated as a fraction of 100% enzyme activity.
In situ stapling of 1b during ZiPro inhibition assay (Figure 3a)
All measurements were performed in triplicate. 2 µl of DCP (20 mM in DMSO) and 2 µl of 1a (10 mM in water) were mixed in 196 µl buffer (10 mM Tris pH 7.5, 4 mM TCEP). A blank was prepared by adding 2 µl of DCP (20 mM in DMSO) to 198 µl buffer (10 mM Tris pH 7.5, 4 mM TCEP). After 5 minutes, 10 µl of the reaction and blank mixtures were added to ZiPro (0.3 nM) in assay buffer (10 mM Tris pH 8.5, 1 mM CHAPS, 20% glycerol) to a total volume of 100 µl and incubated at room temperature. After incubation over 5, 20, 45, 90 and 180 minutes, substrate (5 µM) was added, and the enzyme activity was monitored as described above. Percent inhibition was calculated as a fraction of 100% enzyme activity considering each individual set of blanks.
Determination of IC50 values of 1a and 1b (Figure 3b-c)
All measurements were performed in triplicate using the ZiPro assay described above . Stock solutions (1 mM and 2 mM) of 1a were prepared in buffer (10 mM Tris pH 7.5, 4 m M T C EP) and used immediately. ZiPro inhibition of 1a was measured at 100, 50, 20, 5, 2. 5, 1, and 0. 5
µM. Stock solutions of purified 1b were made in water. ZiPro inhibition of 1b was measured at 50, 20, 5, 2.5, 1, 0.5, and 0.1 µM. The IC50 values were calculated using GraphPad Prism 8 using a 3 -parameter fit . […]

For series [2] the following is noted: the molecule shown is the open-chain precursor, crosslinker bond, 0.6 mM.

Read-outs that look alike come from different tables or passages of the source. Where a SMILES comes first, the peptide text is derived from it. [ ]: non-standard residue; d: D form. Dab = NCC[C@H](N)C(=O)O

Chain of Zika virus NS2B-NS3 protease (ZiPro) (A0A024B7W1 1503-1679): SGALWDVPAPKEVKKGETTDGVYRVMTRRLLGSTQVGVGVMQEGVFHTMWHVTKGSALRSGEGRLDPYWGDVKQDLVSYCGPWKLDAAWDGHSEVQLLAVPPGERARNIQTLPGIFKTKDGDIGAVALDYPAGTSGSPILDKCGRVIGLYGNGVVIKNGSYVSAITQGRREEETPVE
Chain of Zika virus NS2B-NS3 protease (ZiPro) (A0A024B7W1 1417-1468): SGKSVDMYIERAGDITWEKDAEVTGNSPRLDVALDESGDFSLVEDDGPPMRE

By IC50 is commonly meant the concentration that inhibits the measured activity by half. Read a low IC50 as greater potency. As usually defined, the inhibition is the percentage by which the read-out fell short of the control. `N=C(N)NCCC[C@H](NC(=O)[C@H](CCCCN)NC(=O)[C@@H](N)CCNC(=O)[C@@H](N)CS)C(=O)N[C@@H](CCCCN)C(=O)N[C@@H](CCNC(=O)[C@@H](N)CS)C(N)=O` [1a] (H-[Dab](Cys)KRK[Dab](Cys)-NH2) had an IC50 in series [1] (triplicate) of 23 µM. In addition, the “ZiPro inhibition (%) 1 μM” value in series [1] (purified linear peptides at 1 μM, ZiPro 0.3 nM, substrate 5 μM, 10 mM Tris pH 8.5, 1 mM CHAPS, 20% glycerol, triplicate, n.i. = no inhibition) was “n.i”. Moreover, in series [1] (purified linear peptides at 10 μM, ZiPro 0.3 nM, substrate Bz-Nle-Lys-Lys-Arg-AMC 5 μM, 10 mM Tris pH 8.5, 1 mM CHAPS, 20% glycerol, fluorescence, triplicate, n.i. = no inhibition), the inhibition at 10 µM was found to be 23 ± 4%.

On to `N=C(N)NCCC[C@@H]1NC(=O)[C@H](CCCCN)NC(=O)[C@@H](N)CCNC(=O)[C@@H]2CSC(=N2)c2cccc(n2)C2=N[C@@H](CS2)C(=O)NCC[C@@H](C(N)=O)NC(=O)[C@H](CCCCN)NC1=O` [1b], for which, in series [1] (in situ stapled peptides (crude mixtures, no purification) after 24 h incubation with DCP, 1 μM, ZiPro 0.3 nM, substrate 5 μM, pH 8.5, triplicate, n.i. = no inhibition), the inhibition at 1 µM worked out at 27 ± 4%. The inhibition at 10 µM in series [1] (in situ stapled peptides (crude mixtures, no purification) after 24 h incubation with DCP, 10 μM, ZiPro 0.3 nM, substrate 5 μM, pH 8.5, triplicate, n.i. = no inhibition) came out at 60 ± 7%. In series [1] (triplicate), half-maximal inhibition (IC50) was put at 0.8 µM.

In the case of `N#Cc1cccc(C#N)n1` [DCP, 2,6-dicyanopyridine, reference compound], in series [1] (concentrations of DCP used in the assay), the “effect of DCP on ZiPro activity” value is listed as “no significant effect”.

H-Cys-Lys-Arg-Lys-Dab(Cys)-NH2? had a ring closure, conversion in series [2] (25-membered ring, 2,6-dicyanopyridine (2 eq)/TCEP, 10 mM Tris pH 7.5 (aq, MeOH from DCP stock)) of 76%.

The compound H-Cys-Lys-Arg-Lys-Dap(Cys)-NH2? showed a ring closure, conversion in series [2] (24-membered ring, 2,6-dicyanopyridine (2 eq)/TCEP, 10 mM Tris pH 7.5 (aq, MeOH from DCP stock)) of 83%.

As to H-Cys-Lys-Arg-Lys-Lys(Cys)-NH2?, the ring closure, conversion in series [2] (27-membered ring, 2,6-dicyanopyridine (2 eq)/TCEP, 10 mM Tris pH 7.5 (aq, MeOH from DCP stock)) was found to be 83%.

H-Cys-Lys-Arg-Lys-Orn(Cys)-NH2? registered a ring closure, conversion in series [2] (26-membered ring, 2,6-dicyanopyridine (2 eq)/TCEP, 10 mM Tris pH 7.5 (aq, MeOH from DCP stock)) of 79%.

Consider H-Dys-Lys-Arg-Lys-Dys-NH2, for which the ring closure, conversion stood at 93% in series [2] (30-membered ring, 2,6-dicyanopyridine (2 eq)/TCEP (6 eq), 10 mM Tris pH 7.5); 89% in series [2] (30-membered ring, 2,6-dicyanopyridine (2 eq)/TCEP, 10 mM Tris pH 7.5 (aq, MeOH from DCP stock)); 60% in series [2] (30-membered ring, 2,6-dicyanopyridine (8 eq)/TCEP, 10 mM Tris pH 7.5).

(Values after publication PMC8178976, “A biocompatible stapling reaction for in situ generation of constrained peptides” (Chemical Science, 2020).)
